The supplement of paper PMC10307832

What was measured:
Assay in all cases: relative viability (nuclei count vs DMSO), 5 days (fraction); higher = more cells survive
NCI-H1792 = system: NCI-H1792
How it was run: (§1)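 Lung cancer cell lines in 1536-well plates got either a single drug or a fixed anchor-drug dose together with five library-drug doses (not always all listed) in √10 steps, by pin tool, on the day after seeding. Nuclei were counted after 5 days, and relative viability is the treated-to-vehicle ratio of nuclei counts. Values are medians of duplicate plates.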

NCI-H1734 = system: NCI-H1734
How it was run: as §1

LC-2-ad = system: LC-2-ad
How it was run: as §1

NCI-H2087 = system: NCI-H2087
How it was run: as §1

NCI-H2342 = system: NCI-H2342
How it was run: as §1

NCI-H647 = system: NCI-H647
How it was run: as §1

NCI-H2009 = system: NCI-H2009
How it was run: as §1

NCI-H596 = system: NCI-H596
How it was run: as §1

NCI-H2405 = system: NCI-H2405
How it was run: as §1

SK-MES-1 = system: SK-MES-1
How it was run: as §1

NCI-H1395 = system: NCI-H1395
How it was run: as §1

NCI-H661 = system: NCI-H661
How it was run: as §1

NCI-H1355 = system: NCI-H1355
How it was run: as §1

HCC-827 = system: HCC-827
How it was run: as §1

HCC-366 = system: HCC-366
How it was run: as §1

NCI-H1437 = system: NCI-H1437
How it was run: as §1

EKVX = system: EKVX
How it was run: as §1

HARA = system: HARA
How it was run: as §1

LOU-NH91 = system: LOU-NH91
How it was run: as §1

NCI-H2170 = system: NCI-H2170
How it was run: as §1

NCI-H2228 = system: NCI-H2228
How it was run: as §1

BEN = system: BEN
How it was run: as §1

SK-LU-1 = system: SK-LU-1
How it was run: as §1

`O=C(O)c1ccc(-c2c[nH]c3ncc(-c4ccccc4)cc23)cc1C1CCCC1` + Nc1nc2[nH]cc(CCc3ccc(C(=O)N[C@@H](CCC(=O)O)C(=O)O)cc3)c2c(=O)[nH]1 [Pemetrexed] (partner 0.2 µM) was tested, and the relative viability (NCI-H1792; first compound 0.04 µM) was 0.713, the relative viability (NCI-H1792; first compound 0.1265 µM) was 0.968 and the relative viability (NCI-H1792; first compound 0.4 µM) was 1.05. It also gave a relative viability (NCI-H1792; first compound 1.265 µM) of 0.734, a relative viability (NCI-H1734; first compound 0.04 µM) of 0.413 and a relative viability (NCI-H1734; first compound 0.1265 µM) of 0.43. The relative viability (NCI-H1734; first compound 0.4 µM) was 0.428, the relative viability (NCI-H1734; first compound 1.265 µM) was 0.411 and the relative viability (LC-2-ad; first compound 0.04 µM) was 0.302. The relative viability (LC-2-ad; first compound 0.1265 µM) was 0.272, the relative viability (LC-2-ad; first compound 0.4 µM) was 0.278 and the relative viability (LC-2-ad; first compound 1.265 µM) was 0.261. It also gave a relative viability (NCI-H2087; first compound 0.04 µM) of 0.576, a relative viability (NCI-H2087; first compound 0.1265 µM) of 0.652 and a relative viability (NCI-H2087; first compound 0.4 µM) of 0.653. It also gave a relative viability (NCI-H2087; first compound 1.265 µM) of 0.585, a relative viability (NCI-H2342; first compound 0.04 µM) of 0.804 and a relative viability (NCI-H2342; first compound 0.1265 µM) of 0.816. For the same molecule, the relative viability (NCI-H2342; first compound 0.4 µM) was 0.765, the relative viability (NCI-H2342; first compound 1.265 µM) was 0.74 and the relative viability (NCI-H647; first compound 0.04 µM) was 0.165. The relative viability (NCI-H647; first compound 0.1265 µM) was 0.171, the relative viability (NCI-H647; first compound 0.4 µM) was 0.182 and the relative viability (NCI-H647; first compound 1.265 µM) was 0.148. The relative viability (NCI-H2009; first compound 0.04 µM) was 1.03, the relative viability (NCI-H2009; first compound 0.1265 µM) was 1.11 and the relative viability (NCI-H2009; first compound 0.4 µM) was 1.03. The relative viability (NCI-H2009; first compound 1.265 µM) was 0.946, the relative viability (NCI-H596; first compound 0.04 µM) was 0.472 and the relative viability (NCI-H596; first compound 0.1265 µM) was 0.53. It also gave a relative viability (NCI-H596; first compound 0.4 µM) of 0.531, a relative viability (NCI-H596; first compound 1.265 µM) of 0.479 and a relative viability (NCI-H2405; first compound 0.04 µM) of 1.05. It also gave a relative viability (NCI-H2405; first compound 0.1265 µM) of 1.15, a relative viability (NCI-H2405; first compound 0.4 µM) of 0.959 and a relative viability (NCI-H2405; first compound 1.265 µM) of 0.648. The relative viability (SK-MES-1; first compound 0.04 µM) was 0.959, the relative viability (SK-MES-1; first compound 0.1265 µM) was 1.1 and the relative viability (SK-MES-1; first compound 0.4 µM) was 0.941. For the same molecule, the relative viability (SK-MES-1; first compound 1.265 µM) was 0.722, the relative viability (NCI-H1395; first compound 0.04 µM) was 0.949 and the relative viability (NCI-H1395; first compound 0.1265 µM) was 1.14. The relative viability (NCI-H1395; first compound 0.4 µM) was 0.774, the relative viability (NCI-H1395; first compound 1.265 µM) was 0.858 and the relative viability (NCI-H661; first compound 0.04 µM) was 0.881. It also gave a relative viability (NCI-H661; first compound 0.1265 µM) of 0.918, a relative viability (NCI-H661; first compound 0.4 µM) of 0.92 and a relative viability (NCI-H661; first compound 1.265 µM) of 0.892. For the same molecule, the relative viability (NCI-H1355; first compound 0.04 µM) was 0.991, the relative viability (NCI-H1355; first compound 0.1265 µM) was 1.13 and the relative viability (NCI-H1355; first compound 0.4 µM) was 1.12. The relative viability (NCI-H1355; first compound 1.265 µM) was 0.756, the relative viability (HCC-827; first compound 0.04 µM) was 0.198 and the relative viability (HCC-827; first compound 0.1265 µM) was 0.28. It also gave a relative viability (HCC-827; first compound 0.4 µM) of 0.287, a relative viability (HCC-827; first compound 1.265 µM) of 0.163 and a relative viability (HCC-366; first compound 0.04 µM) of 0.178. It also gave a relative viability (HCC-366; first compound 0.1265 µM) of 0.203, a relative viability (HCC-366; first compound 0.4 µM) of 0.149 and a relative viability (HCC-366; first compound 1.265 µM) of 0.187. It also gave a relative viability (NCI-H1437; first compound 0.04 µM) of 0.338, a relative viability (NCI-H1437; first compound 0.1265 µM) of 0.33 and a relative viability (NCI-H1437; first compound 0.4 µM) of 0.311. The relative viability (NCI-H1437; first compound 1.265 µM) was 0.295, the relative viability (EKVX; first compound 0.04 µM) was 0.397 and the relative viability (EKVX; first compound 0.1265 µM) was 0.576. The relative viability (EKVX; first compound 0.4 µM) was 0.376, the relative viability (EKVX; first compound 1.265 µM) was 0.409 and the relative viability (HARA; first compound 0.04 µM) was 0.23. It also gave a relative viability (HARA; first compound 0.1265 µM) of 0.237, a relative viability (HARA; first compound 0.4 µM) of 0.222 and a relative viability (HARA; first compound 1.265 µM) of 0.252. It also gave a relative viability (LOU-NH91; first compound 0.04 µM) of 0.419, a relative viability (LOU-NH91; first compound 0.1265 µM) of 0.404 and a relative viability (LOU-NH91; first compound 0.4 µM) of 0.414. The relative viability (LOU-NH91; first compound 1.265 µM) was 0.435, the relative viability (NCI-H2170; first compound 0.04 µM) was 0.265 and the relative viability (NCI-H2170; first compound 0.1265 µM) was 0.263. For the same molecule, the relative viability (NCI-H2170; first compound 0.4 µM) was 0.247, the relative viability (NCI-H2170; first compound 1.265 µM) was 0.282 and the relative viability (NCI-H2228; first compound 0.04 µM) was 0.349. It also gave a relative viability (NCI-H2228; first compound 0.1265 µM) of 0.294, a relative viability (NCI-H2228; first compound 0.4 µM) of 0.348 and a relative viability (NCI-H2228; first compound 1.265 µM) of 0.29. The relative viability (BEN; first compound 0.04 µM) was 0.598, the relative viability (BEN; first compound 0.1265 µM) was 0.862 and the relative viability (BEN; first compound 0.4 µM) was 0.792. It also gave a relative viability (BEN; first compound 1.265 µM) of 0.788, a relative viability (SK-LU-1; first compound 0.04 µM) of 0.909 and a relative viability (SK-LU-1; first compound 0.1265 µM) of 0.987. The relative viability (SK-LU-1; first compound 0.4 µM) was 0.882 and the relative viability (SK-LU-1; first compound 1.265 µM) was 0.548.
